System: disseminated L1210 murine leukemia
Test: Antileukemic activity against disseminated L1210 murine leukemia (in vivo, iv treatment)
Design: species or system mouse
Conditions: for LTS (Long Term Survivors (>60 days) at the end the experiment) / Tox (Number of toxic deaths/number of mice) / ILS% (Increase in life span): combination at the same doses and schedule; for ILS% (Increase in life span): L1210 cells 10^5/mouse iv on day 0
Excerpt: Combining doxorubicin and Ia at the same doses with the same schedule an increase of activity with ILS% values of 150 was observed, indicating a synergistic effect.
For these experiments Ia was solubilized in [Cremophor® /EtOH= 6.5:3.5]/[normal saline]=20/80 v/v, while standard etoposide pharmaceutical preparation and doxorubicin solubilized in water were used.

[1] = Table 2 experiment: Ia 1.5 mg/kg/day iv days +1,2, Doxorubicin 13 mg/kg/day iv day +3
[2] = doxorubicin alone 13 mg/kg day +3, Ia alone 1.5 mg/kg days +1,2
[3] = Table 1 experiment: Ia 1 mg/kg/day iv days +1,2, Etoposide 30 mg/kg/day iv day +3
[4] = etoposide alone 30 mg/kg day +3, Ia alone 1 mg/kg days +1,2

## COc1cccc2c1C(=O)c1c(O)c3c(c(O)c1C2=O)C[C@@](O)(C(=O)CO)C[C@@H]3O[C@H]1C[C@H](N)[C@H](O)[C@H](C)O1 [Doxorubicin, doxorubicin]
[1]
  LTS (Long Term Survivors (>60 days) at the end the experiment): 0/10
  Tox (Number of toxic deaths/number of mice): 0/10
  ILS% (Increase in life span): 50%
[2]
  toxicity (in words): without toxicity

## COc1cc([C@@H]2c3cc4c(cc3[C@@H](O[C@@H]3O[C@@H]5CO[C@@H](C)O[C@H]5[C@H](O)[C@H]3O)[C@H]3COC(=O)[C@H]23)OCO4)cc(OC)c1O [Etoposide, etoposide]
[3]
  LTS (Long Term Survivors (>60 days) at the end the experiment): 0/10
  Tox (Number of toxic deaths/number of mice): 0/10
  ILS% (Increase in life span): 100%
[4]
  toxicity (in words): without toxicity

## CC(=O)[C@]1(O)Cc2c(O)c3c(c(O)c2[C@@H](O[C@H]2C[C@H](N4CC4)[C@H](OS(C)(=O)=O)[C@H](C)O2)C1)C(=O)c1ccccc1C3=O [Ia, 4-demethoxy-3'-deamino-3'-aziridinyl-4'-methansulfonyl daunorubicin]
[3]
  LTS (Long Term Survivors (>60 days) at the end the experiment): 0/10
  Tox (Number of toxic deaths/number of mice): 0/10
  ILS% (Increase in life span): 67%
[1]
  LTS (Long Term Survivors (>60 days) at the end the experiment): 0/10
  Tox (Number of toxic deaths/number of mice): 0/10
  ILS% (Increase in life span): 67%
[2]
  toxicity (in words): without toxicity
[4]
  toxicity (in words): without toxicity

Source: EP1165069B1, “ANTITUMOUR SYNERGISTIC COMPOSITION” (Pharmacia Italia S.p.A., priority 1999, dated 2000)
